Values joined by “and” are separate entries in the source; they are usually repeats but may differ in a detail not shown here. Identical values can stand only once. Inconclusive results and toxic doses are left out. Rule as the data show it: active = T/C of 150% or more; inactive = T/C below 125%.
Tested on: L1210 leukemia ip in BDF1 mice, survival T/C
Assay: NCI In Vivo Anticancer Drug Screen. Data for tumor model L1210 Leukemia (intraperitoneal) in B6D2F1 (BDF1) mice
Conditions: endpoint: mean survival time, higher = longer survival
Summary of the method: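 Value reflects the ratio of survival in compound-treated mice to survival in vehicle-treated controls, with both groups carrying the same transplanted tumor.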

[1] = dose: 100.0 mg/kg/injection, schedule: Q04DX002 (ip), vehicle: saline with Tween-80
[2] = dose: 200.0 mg/kg/injection, schedule: Q04DX002 (ip), vehicle: saline with Tween-80
[3] = dose: 400.0 mg/kg/injection, schedule: Q04DX002 (ip), vehicle: saline with Tween-80
[4] = dose: 100.0 mg/kg/injection, schedule: Q01DX009 (ip), vehicle: Klucel (hydroxypropylcellulose) (HPC)
[5] = dose: 200.0 mg/kg/injection, schedule: Q01DX009 (ip), vehicle: Klucel (hydroxypropylcellulose) (HPC)
[6] = dose: 100.0 mg/kg/injection, schedule: Q04DX003 (ip), vehicle: saline with Tween-80
[7] = dose: 200.0 mg/kg/injection, schedule: Q04DX003 (ip), vehicle: saline with Tween-80
[8] = dose: 400.0 mg/kg/injection, schedule: Q04DX003 (ip), vehicle: saline with Tween-80
[9] = dose: 100.0 mg/kg/injection, schedule: Q01DX009 (ip), vehicle: saline with Tween-80

Measured: T/C

CNC(=O)Oc1ccc(C2CCCCC2)cc1
inactive: dose: 100.0 mg/kg/injection, schedule: Q01DX001 (ip), vehicle: carboxymethylcellulose (CMC) 99 % of control | dose: 100.0 mg/kg/injection, schedule: Q01DX009 (ip), vehicle: carboxymethylcellulose (CMC) 93 % of control and 103 % of control | dose: 100.0 mg/kg/injection, schedule: Q04DX002 (ip), vehicle: Klucel (hydroxypropylcellulose) (HPC) 97 % of control | dose: 100.0 mg/kg/injection, schedule: Q04DX002 (ip), vehicle: carboxymethylcellulose (CMC) 95 % of control and 101 % of control | dose: 100.0 mg/kg/injection, schedule: Q04DX003 (ip), vehicle: carboxymethylcellulose (CMC) 94 % of control | dose: 200.0 mg/kg/injection, schedule: Q01DX001 (ip), vehicle: carboxymethylcellulose (CMC) 90 % of control | dose: 200.0 mg/kg/injection, schedule: Q01DX009 (ip), vehicle: carboxymethylcellulose (CMC) 93 % of control and 95 % of control | dose: 200.0 mg/kg/injection, schedule: Q04DX002 (ip), vehicle: Klucel (hydroxypropylcellulose) (HPC) 97 % of control | dose: 200.0 mg/kg/injection, schedule: Q04DX002 (ip), vehicle: carboxymethylcellulose (CMC) 101 % of control and 108 % of control | dose: 200.0 mg/kg/injection, schedule: Q04DX003 (ip), vehicle: carboxymethylcellulose (CMC) 94 % of control | dose: 400.0 mg/kg/injection, schedule: Q01DX001 (ip), vehicle: carboxymethylcellulose (CMC) 92 % of control | dose: 400.0 mg/kg/injection, schedule: Q01DX009 (ip), vehicle: carboxymethylcellulose (CMC) 98 % of control and 100 % of control | dose: 400.0 mg/kg/injection, schedule: Q04DX002 (ip), vehicle: Klucel (hydroxypropylcellulose) (HPC) 100 % of control | dose: 400.0 mg/kg/injection, schedule: Q04DX002 (ip), vehicle: carboxymethylcellulose (CMC) 95 % of control and 101 % of control | dose: 400.0 mg/kg/injection, schedule: Q04DX003 (ip), vehicle: carboxymethylcellulose (CMC) 100 % of control

CCN(CC)CCOC(=O)Nc1cccc(Cl)c1
inactive: dose: 25.0 mg/kg/injection, schedule: Q01DX009 (ip), vehicle: saline 100 % of control | dose: 50.0 mg/kg/injection, schedule: Q01DX009 (ip), vehicle: saline 98 % of control | dose: 100.0 mg/kg/injection, schedule: Q01DX009 (ip), vehicle: saline 100 % of control and 109 % of control

O=C(O)c1c(Br)c(Br)c(Br)c(Br)c1C(=O)Nc1cccc2ccccc12
inactive: [1] 97 % of control | [2] 97 % of control | [3] 94 % of control

CNc1nc(NC)nc(NC)n1
inactive: dose: 12.5 mg/kg/injection, schedule: Q01DX009 (ip), vehicle: Klucel (hydroxypropylcellulose) (HPC) 102 % of control | dose: 25.0 mg/kg/injection, schedule: Q01DX009 (ip), vehicle: Klucel (hydroxypropylcellulose) (HPC) 102 % of control | dose: 50.0 mg/kg/injection, schedule: Q01DX009 (ip), vehicle: Klucel (hydroxypropylcellulose) (HPC) 98 % of control | [4] 98 % of control | [5] 100 % of control

CCCCCCCCCC(=O)CC
inactive: [4] 104 % of control | dose: 100.0 mg/kg/injection, schedule: Q04DX003 (ip), vehicle: Klucel (hydroxypropylcellulose) (HPC) 110 % of control | [5] 96 % of control | dose: 200.0 mg/kg/injection, schedule: Q04DX003 (ip), vehicle: Klucel (hydroxypropylcellulose) (HPC) 97 % of control | dose: 400.0 mg/kg/injection, schedule: Q01DX009 (ip), vehicle: Klucel (hydroxypropylcellulose) (HPC) 102 % of control | dose: 400.0 mg/kg/injection, schedule: Q04DX003 (ip), vehicle: Klucel (hydroxypropylcellulose) (HPC) 93 % of control

CCC(C(=O)O)N1C(=O)C2C3CCC(C3)C2C1=O (stereo unspecified)
inactive: [6] 98 % of control | [7] 103 % of control | [8] 103 % of control

Cc1c(Cl)cccc1NC(=O)OC/C=C/c1ccccc1
inactive: dose: 100.0 mg/kg/injection, schedule: Q01DX001 (ip), vehicle: saline with Tween-80 93 % of control | [9] 101 % of control and 105 % of control | [1] 101 % of control and 114 % of control | [6] 91 % of control | dose: 200.0 mg/kg/injection, schedule: Q01DX001 (ip), vehicle: saline with Tween-80 93 % of control | dose: 200.0 mg/kg/injection, schedule: Q01DX009 (ip), vehicle: saline with Tween-80 94 % of control and 101 % of control | [2] 96 % of control and 106 % of control | [7] 93 % of control | dose: 400.0 mg/kg/injection, schedule: Q01DX001 (ip), vehicle: saline with Tween-80 88 % of control | dose: 400.0 mg/kg/injection, schedule: Q01DX009 (ip), vehicle: saline with Tween-80 94 % of control and 101 % of control | [3] 93 % of control and 97 % of control | [8] 98 % of control

Cc1cc2nc(SCC(=O)O)[nH]c2cc1C
inactive: dose: 100.0 mg/kg/injection, schedule: Q01DX009 (ip), vehicle: gum acacia 96 % of control | dose: 100.0 mg/kg/injection, schedule: Q04DX003 (ip), vehicle: gum acacia 99 % of control | dose: 200.0 mg/kg/injection, schedule: Q01DX009 (ip), vehicle: gum acacia 89 % of control | dose: 200.0 mg/kg/injection, schedule: Q04DX003 (ip), vehicle: gum acacia 103 % of control | dose: 400.0 mg/kg/injection, schedule: Q04DX003 (ip), vehicle: gum acacia 93 % of control

c1ccc2c(CN3CCCCC3)c[nH]c2c1
inactive: dose: 50.0 mg/kg/injection, schedule: Q01DX009 (ip), vehicle: saline with Tween-80 108 % of control | [9] 88 % of control | [6] 93 % of control | [7] 88 % of control

Fc1cc(F)c2ncccc2c1
inactive: dose: 12.5 mg/kg/injection, schedule: Q01DX001 (ip), vehicle: carboxymethylcellulose (CMC) 103 % of control | dose: 25.0 mg/kg/injection, schedule: Q01DX001 (ip), vehicle: carboxymethylcellulose (CMC) 98 % of control | dose: 50.0 mg/kg/injection, schedule: Q01DX001 (ip), vehicle: carboxymethylcellulose (CMC) 101 % of control | dose: 75.0 mg/kg/injection, schedule: Q01DX001 (ip), vehicle: carboxymethylcellulose (CMC) 117 % of control | dose: 150.0 mg/kg/injection, schedule: Q01DX001 (ip), vehicle: carboxymethylcellulose (CMC) 118 % of control
